According to the supplement of paper PMC13380429:

What was measured:
Conditions in all cases: 72 h
[1] = system: HepG2; assay: drug sensitivity score (DSS) for viability; higher = more toxic; extreme values may be limits of the assay
[2] = system: Vero E6; assay: as above
[3] = system: Calu-3; assay: as above
[4] = system: U2OS; assay: as above
[5] = system: Caco-2; assay: as above
[6] = system: HepG2; assay: cell viability relative to DMSO; higher = less toxic
[7] = system: Vero E6; assay: as above
[8] = system: Calu-3; assay: as above
[9] = system: U2OS; assay: as above
[10] = system: Caco-2; assay: as above
[11] = system: HepG2; assay: relative viability EC50 (midpoint between 100% and the lowest measured viability); higher = less toxic
[12] = system: Vero E6; assay: as above
[13] = system: Calu-3; assay: as above
[14] = system: U2OS; assay: as above
[15] = system: Caco-2; assay: as above

| Compound | drug sensitivity score [1] | drug sensitivity score [2] | drug sensitivity score [3] | drug sensitivity score [4] | drug sensitivity score [5] | cell viability ([6]; 1 nM) [%] | cell viability ([6]; 10 nM) [%] | cell viability ([6]; 100 nM) [%] | cell viability ([6]; 1000 nM) [%] | cell viability ([6]; 10000 nM) [%] | cell viability ([7]; 1 nM) [%] | cell viability ([7]; 10 nM) [%] | cell viability ([7]; 100 nM) [%] | cell viability ([7]; 1000 nM) [%] | cell viability ([7]; 10000 nM) [%] | cell viability ([8]; 1 nM) [%] | cell viability ([8]; 10 nM) [%] | cell viability ([8]; 100 nM) [%] | cell viability ([8]; 1000 nM) [%] | cell viability ([8]; 10000 nM) [%] | cell viability ([9]; 1 nM) [%] | cell viability ([9]; 10 nM) [%] | cell viability ([9]; 100 nM) [%] | cell viability ([9]; 1000 nM) [%] | cell viability ([9]; 10000 nM) [%] | cell viability ([10]; 1 nM) [%] | cell viability ([10]; 10 nM) [%] | cell viability ([10]; 100 nM) [%] | cell viability ([10]; 1000 nM) [%] | cell viability ([10]; 10000 nM) [%] | relative viability EC50 [11] [µM] | relative viability EC50 [12] [µM] | relative viability EC50 [13] [µM] | relative viability EC50 [14] [µM] | relative viability EC50 [15] [µM] |
| --- | --- | --- | --- | --- | --- | --- | --- | --- | --- | --- | --- | --- | --- | --- | --- | --- | --- | --- | --- | --- | --- | --- | --- | --- | --- | --- | --- | --- | --- | --- | --- | --- | --- | --- | --- |
| C=C(C)[C@@H]1[C@H]2OC(=O)[C@@H]1[C@]1(O)C[C@H]3O[C@]34C(=O)O[C@H]2[C@]14C [picrotoxinin] | 0 | 0 | 0 | 0 | 0 | 109 | 108 | 106 | 97.4 | 98.4 | 97.2 | 95.6 | 97.5 | 102 | 99.5 | 104 | 107 | 92.8 | 94.5 | 92.6 | 101 | 98.4 | 98.3 | 98.4 | 97.2 | 108 | 102 | 99.2 | 103 | 96.1 | > 10 | > 10 | > 10 | > 10 | > 10 |
| Oc1cccc(O)c1 [resorcinol] | 2.5 | 0 | 0 | 0 | 0 | 105 | 92.9 | 90.4 | 79.2 | 89 | 103 | 96 | 97.4 | 96.5 | 107 | 97.5 | 102 | 114 | 99.2 | 103 | 97.6 | 93.8 | 96.2 | 96.8 | 103 | 103 | 89.8 | 95.5 | 100 | 103 | > 10 | > 10 | > 10 | > 10 | > 10 |
| CN(C)CCC=C1c2ccccc2CCc2ccccc21 [amitriptyline] | 0.8 | 0 | 0 | 0 | 0 | 107 | 102 | 99.1 | 93 | 83.5 | 102 | 94 | 86.5 | 113 | 86.3 | 99.6 | 109 | 110 | 104 | 90.3 | 102 | 98.5 | 100 | 101 | 92.3 | 110 | 77.9 | 104 | 96.5 | 90.8 | > 10 | > 10 | > 10 | > 10 | > 10 |
| CCC[C@H](N[C@H]1CCc2cc(F)cc(F)c2C1)C(=O)Nc1cn(C(C)(C)CNCC(C)(C)C)cn1 | 1.3 | 0.1 | 0.2 | 0.2 | 0.3 | 105 | 104 | 104 | 93.9 | 80.1 | 99.7 | 104 | 107 | 95.5 | 89.1 | 95 | 105 | 108 | 103 | 84.4 | 102 | 94.7 | 99.7 | 92.4 | 87.9 | 102 | 91.8 | 102 | 98.2 | 86.1 | > 10 | > 10 | > 10 | > 10 | > 10 |
| O=[N+]([O-])/N=C1\NCCN1Cc1ccc(Cl)nc1 [imidacloprid] | 0 | 0 | 0 | 0 | 0 | 98.2 | 109 | 99.7 | 98.9 | 93.1 | 95.1 | 95.8 | 96.7 | 98 | 96.5 | 103 | 98.5 | 103 | 98.8 | 106 | 97.4 | 95.7 | 103 | 92.3 | 94.4 | 104 | 94.6 | 99.8 | 88.6 | 104 | > 10 | > 10 | > 10 | > 10 | > 10 |
| CCC(=O)NS(=O)(=O)c1ccc(-c2c(-c3ccccc3)noc2C)cc1 [parecoxib] | 0 | 0 | 0 | 0 | 0 | 88.9 | 90 | 94 | 94.2 | 90.1 | 97.7 | 101 | 95.6 | 95.6 | 93.6 | 106 | 94.3 | 94.4 | 92.5 | 108 | 103 | 113 | 103 | 94.1 | 99.2 | 99.5 | 96 | 96.6 | 98.9 | 95.7 | > 10 | > 10 | > 10 | > 10 | > 10 |
| O=c1[nH]c2cc(C(F)(F)F)c(N3CCOCC3)cc2n(CP(=O)(O)O)c1=O | 0 | 0 | 0 | 0 | 0 | 95.4 | 104 | 107 | 90.5 | 99.1 | 105 | 99.8 | 99.6 | 102 | 101 | 108 | 106 | 98 | 99.7 | 109 | 97.3 | 102 | 103 | 104 | 99.7 | 102 | 92.8 | 98.5 | 106 | 93.9 | > 10 | > 10 | > 10 | > 10 | > 10 |
| O=C(Cc1ccc(-c2ccc(OCCN3CCOCC3)cc2)cn1)NCc1ccccc1 [KX2-391] | 14.9 | 15.8 | 10.4 | 14.3 | 11.2 | 107 | 113 | 80.8 | 34.5 | 38.5 | 91.7 | 93.2 | 88.3 | 24.5 | 27.2 | 96.8 | 90.8 | 82.8 | 54.5 | 42 | 97.5 | 94.8 | 96.4 | 24.5 | 19.5 | 102 | 92.3 | 91.7 | 45.3 | 39.2 | 0.143 | 0.196 | 0.222 | 0.339 | 0.284 |
| Cc1ccc(Oc2ccccc2-c2csc(N=C3NCCCN3)n2)c(C)c1 [abafungin] | 2.3 | 0 | 0 | 0 | 2 | 105 | 104 | 104 | 87.8 | 75.8 | 106 | 99.8 | 105 | 99.4 | 97.7 | 90.4 | 99 | 104 | 99.3 | 112 | 91.6 | 95.2 | 93.6 | 96.7 | 91.2 | 104 | 105 | 100 | 87.5 | 78.3 | > 10 | > 10 | > 10 | > 10 | > 10 |
| COc1cc2c(Nc3ccc(Cl)c(Cl)c3F)ncnc2cc1OC[C@@H]1C[C@@H]2CN(C)C[C@@H]2C1 [XL647] | 6.3 | 13.6 | 15.3 | 8.2 | 8.4 | 102 | 89.7 | 99.7 | 92.9 | 6.7 | 96.8 | 100 | 85.1 | 39.2 | -0.4 | 98.8 | 93.2 | 82.4 | 31 | 0.7 | 95.9 | 95.9 | 93.7 | 84.2 | -0.3 | 92.1 | 92.6 | 95 | 72.1 | 14.9 | 2.55 | 0.612 | 0.431 | 1.94 | 1.39 |
| N=C(N)NCCSSCCNC(=N)N [guanidinoethyldisulfide-bicarbonate] | 0 | 0 | 0 | 0 | 0 | 93 | 101 | 96.4 | 97.9 | 93 | 97.5 | 96.3 | 102 | 96.2 | 91.4 | 99.7 | 106 | 99.9 | 98.6 | 108 | 106 | 96.8 | 100 | 96.8 | 102 | 101 | 87.2 | 93.6 | 101 | 91.8 | > 10 | > 10 | > 10 | > 10 | > 10 |
| COc1cccc(-c2cc(F)ccc2[C@H]2Cc3nc(N)nc(C)c3C(=O)N2)n1 [NVP-HSP990] | 30 | 19.6 | 19.3 | 27.7 | 22.6 | 105 | 104 | 0.7 | 0.2 | 0.5 | 101 | 112 | 47.3 | 27.8 | 26.6 | 108 | 97.1 | 43.5 | 34.4 | 36.2 | 102 | 94.9 | 19.3 | 2.5 | 3.2 | 110 | 67.8 | 51.1 | 42.2 | 41 | 0.0343 | 0.0697 | 0.0427 | 0.0446 | 0.0094 |
| COc1ccccc1N1CCN(CCn2c(=O)[nH]c3c([nH]c4ccccc43)c2=O)CC1 [3-MPPI] | 0 | 0 | 0 | 0 | 0 | 102 | 111 | 106 | 102 | 92.2 | 104 | 104 | 102 | 99.4 | 103 | 99.6 | 105 | 104 | 98.8 | 106 | 103 | 98 | 102 | 99.4 | 101 | 96 | 93.8 | 99.4 | 96.1 | 103 | > 10 | > 10 | > 10 | > 10 | > 10 |
| CCOC(=O)C(=O)Nc1cccc(OC)c1C(N)=O | 0 | 0 | 0 | 0 | 0 | 102 | 96.7 | 93.2 | 102 | 104 | 103 | 94.9 | 108 | 105 | 106 | 83.7 | 95.3 | 91.2 | 97.5 | 88.8 | 98.9 | 98.9 | 96 | 101 | 97.6 | 83.3 | 96.6 | 103 | 104 | 102 | > 10 | > 10 | > 10 | > 10 | > 10 |
